Where “and” joins values, the source holds several entries; their conditions need not be identical. Equal values may be shown once. Read-outs that look alike come from different tables or passages of the source. Ends that are not written are not given here. Peptide text beside a SMILES is read from it.

Here are results for 6 compounds from patent publication US8357653B2, “System and method for inhibiting cellular proliferation with tachykinins” (priority 2000, dated 2013).

One data set has as its system guinea pig ileum. The note with it: read-out: K0.5; cited from earlier work.
A further data set concerns warts. The experiment in a line: human wart trial, subcutaneous injection into the wart. The data set is classed as in vivo. As to the method:
A trial was conducted to observe the anti-proliferative action of Sialokinins, SEQ. ID. NO. 1 and NO. 2, in the treatment of warts in a human application. This trial, conducted by a dermatologist, involved four volunteer human subjects who received two (2) subcutaneous injections of Sialokinin I and Sialokinin II into the wart. Injections of 100 μl of 5 μM were administered subcutaneously to each volunteer.
The warts chosen for this trial had been diagnosed as stable and thus any observable change in the size of the wart to the injections would be significant. […] Of the 3 patients, reductions in size of 19%, 79%, and 31% were observed. When no further treatments were administered, no further reductions were observed.

The subject of data set [1] is Lewis lung carcinoma cells. The experiment in a line: in vivo tumorigenicity model, Lewis lung carcinoma in immuno-compromised (nu/nu) mice, intravenous injection. As to the method: To test the efficacy of different concentrations of the Sialokinin peptides, test articles, SEQ. ID. NO. 1 and NO. 2, in an in vivo tumorigenicity model, a study was conducted with Lewis lung carcinoma in immuno-compromised (nu/nu) mice. Lewis lung carcinoma cells were cultured in Dulbecco's Modified Eagles Medium (DMEM), supplemented with 4 mM L-glutamine, 0.1 mM non-essential amino acids, 10% heat inactivated fetal bovine serum (FBS), […] Gentamicin and 250 μg/ml Fungizone. Cells were cultured in 5% CO2 and 95% air at 37° C. Exponentially growing cells were harvested and washed twice in phosphate buffered saline (PBS) to remove any traces of trypsin or serum. The washed cells were suspended in Hanks Balanced Salt Solution (HBSS) for injection.
Athymic nude mice were injected subcutaneously in the right lateral thorax with 10^4 Lewis lung carcinoma cells. A total of 38 mice were injected, with 33 tumor-bearing mice used in the study. When tumors reached a target window size of 100-200 mg, 33 tumor-bearing mice were randomly selected and sorted into one of three groups. Group 1 contained mice that received the test article carrier by an IV injection as a negative control. […]
Tumor measurements were recorded three times a week using calipers. […] Clinical observations on each mouse were done twice weekly for signs of toxicity and morbidity and any abnormal findings were recorded. […]

The test system of a further data set is spleen cell. The note with it: 25 μg/ml of salivary gland extract, cited from earlier work.
The subject of data set [2] is Lewis lung carcinoma cells. Nature of the data set: in vivo tumorigenicity model, Lewis lung carcinoma in C57Bl/6 mice, intra-tumor injection. The note with it: for tumor growth inhibition: Cisplatin group. The method, then: The inhibitory action of Sialokinin I and II, SEQ. ID. NO. 1 and NO. 2, against tumor tissue proliferation (Lewis lung carcinoma) was investigated. To test the efficacy of three different concentrations of peptide test articles in an in vivo tumorigenicity model using Lewis lung carcinoma cells.
Lewis lung carcinoma cells were obtained from ATCC and cultured in monolayers in DMEM supplemented with 10% heat-inactivated FBS, 4 mM L-glutamine, 100 μg/ml streptomycin and 100 units/ml penicillin for two passage cycles at 37° C. in 95% air and 5% CO2. Cells were harvested from subconfluent cultures by 60-second exposure to trypsin/EDTA, washed in serum free medium and brought to the correct concentration of cells in PBS.
On day 0, 35 female C57Bl/6 mice 6-8 weeks of age were shaved on the right lateral thorax and injected subcutaneously with 1.0×10^6 Lewis lung carcinoma cells. A total of 35 mice were injected so that 25 tumor-bearing mice with the correct tumor size could be used for the study. Tumors were allowed to develop for four days post cell injection at which time biweekly tumor measurements (L×W), in millimeters, were recorded for 3 weeks. […] The data are presented as mean tumor mass plotted over time.
When tumors reached a size of 100-200 mg, 25 mice were selected and randomly sorted into five groups. The five groups of Lewis lung tumor bearing mice were used to test three different test article concentrations.
The first group contained animals injected with the test article carrier as a control group. The control animals were injected with 50 μl intra-tumor injections of sterile saline and 1% bovine serum albumin (BSA), three times per week for a total of 5 doses. The control group contained mice that received the vehicle as a negative control.
The second group contained animals treated with 6 mg/kg of Cisplatin (Platinol; Bristol-Myers Squibb Co.) as a positive control administered according to manufacture's specifications by intravenous tail vein injection, every fourth day for a total of 3 doses. The Cisplatin group contained mice that received Cisplatin as a positive control.
The third group contained animals that received 5 μM of test article dissolved in sterile saline and 1% bovine serum albumin (BSA) injected intra-tumor with 50 μl injections, three times per week for a total of 5 doses.
The fourth group contained animals that received 10 μM of test article dissolved in sterile saline and 1% bovine serum albumin (BSA) injected intra-tumor with 50 μl injections, three times per week for a total of 5 doses.
The fifth group contained animals that received 100 μM of test article dissolved in sterile saline and 1% bovine serum albumin (BSA) injected intra-tumor with 50 μl injections, three times per week for a total of 5 doses.
Injections began on the day that animals were randomly sorted into one of five groups. Animals in the control, 5 μM, 10 μM, and 100 μM groups were dosed every other workday with an intra-tumor subcutaneous injection for a total of 5 doses. Tumor size was measured and recorded twice weekly using calipers. Mice were examined twice weekly for morbidity, and any abnormal findings were recorded. When tumors reached a mean target size of 1000 mg in control mice the animals were euthanized and two mice from each group were randomly selected and sent to necropsy for tumor and tissue collection. Mice were photographed before harvesting tumors and major organs (heart, lung, liver, kidney, spleen, GI tract and brain). No mice died while on study.

For the next data set, the system named is ASM cells. The note with it: cited from earlier work; for proliferative response in ASM cells: dose range of 10^−12 to 10^−6M.
Where [3] appears, read: two 100 μl injections of 5 μM into the wart.

Turning to `CSCC[C@H](NC(=O)[C@H](CC(C)C)NC(=O)CNC(=O)[C@H](Cc1ccc(O)cc1)NC(=O)[C@H](Cc1ccccc1)NC(=O)[C@H](CCCCN)NC(=O)[C@H](CC(=O)O)NC(=O)CNC(=O)[C@@H](NC(=O)[C@@H](N)CC(=O)O)[C@@H](C)O)C(N)=O` [Sialokinin II, Asp^1-Thr^2-Gly^3-Asp^4-Lys^5-Phe^6-Tyr^7-Gly^8-Leu^9-Met^10-NH2] (H-DTGDKFYGLM-NH2), the EC50 in the data set on guinea pig ileum is 5.07 nM.

Regarding “Asn^1-Thr^2-Gly^3-Asp^4-Lys^5-Phe^6-Tyr^7-Gly^8-Leu^9-Met^10-NH2 (NTGDKFYGLM-NH2; listed as Aedes aegypti) [SK1]”, in the data set with warts (first clinical exposure, human), the side effects result was “no side effects were detected”. For the same compound, the systemic symptoms result in the data set with warts (two 100 μl injections of 5 μM) is “no systemic symptoms were detected”. Besides, in the data set with warts (two 100 μl injections of 5 μM), the “toxicity in trial subjects” value is given as “no measured or observed toxicity”. The “patients showing a reduction in wart size” value in the data set with warts (setting [3]) was 3 of 4. Also, the “reduction in wart size (individual patients)” value with warts (setting [3]) was 19% and 79% and 31%. Also, the “necropsy, toxicity or tissue necrosis” value in data set [1] (200 μl intravenous injection of 5 μM and 10 μM) is “no detectable toxicity or tissue necrosis”. Moreover, the “weight loss in study animals” value in data set [1] (intravenous 5 μM and 10 μM, during the study period) is listed as “No weight loss”. Besides, the EC50 with guinea pig ileum is 6.58 nM. For the same compound, the “suppression of spleen cell proliferation” value is listed as 39% in the data set on spleen cell (stimulated with IL-2, antigen activated cells); 66% in the data set with spleen cell (stimulated with IL-2, naïve cells); 27% with spleen cell (stimulated with IL-4, antigen activated cells); 39% with spleen cell (stimulated with IL-4, naïve cells).

On to `N.N.[Cl][Pt][Cl]` [Cisplatin], for which the body weight change entry in data set [2] (6 mg/kg intravenous) is recorded as “significant weight loss”. Also, the “growth compared to control tumor growth” value in data set [2] (6 mg/kg intravenous, day 7) came out at 58%; in data set [2] (6 mg/kg intravenous, day 10) it was 93%; in data set [2] (6 mg/kg intravenous, day 15) it was 73%. Moreover, the “tumor size compared to control group mice” value in data set [2] (6 mg/kg intravenous, p<0.05) is “significantly smaller tumors”. The tumor growth inhibition in data set [2] (day 7) stood at 42%; in data set [2] (day 10), 7%; in data set [2] (day 15), 27%.

For “Asp^1-Met^2-His^3-Asp^4-Phe^5-Phe^6-Val^7-Gly^8-Leu^9-Met^10-NH2 (DMHDFFVGLM-NH2) [NKB]”, the “proliferative response in ASM cells” value in the data set on ASM cells is listed as “Neither NKA nor NKB induced significant proliferative responses”.

With “His^1-Lys^2-Thr^3-Asp^4-Ser^5-Phe^6-Val^7-Gly^8-Leu^9-Met^10-NH2 (HKTDSFVGLM-NH2) [NKA]”, the “proliferative response in ASM cells” value in the data set with ASM cells is given as “Neither NKA nor NKB induced significant proliferative responses”. For the same compound, the ASM cell count result with ASM cells (highest administered concentration of 10^−4M) is “relatively modest increase in ASM cell count”.

As for “Arg^1-Pro^2-Lys^3-Pro^4-Gln^5-Gln^6-Phe^7-Phe^8-Gly^9-Leu^10-Met^11-NH2 [Substance P]”, the “concentration eliciting the maximum proliferative response” value in the data set on ASM cells (ASM cells) is listed as 10^−4 M. Further, the ASM cell number result with ASM cells (concentration range of 10^−14 to 10^−4M) was “dose-dependent increases in ASM cell number”. Besides, the EC50 in the data set with guinea pig ileum is 4.94 nM.
